Laboratory results as given in US11278567B2, “Methods of modifying neuronal function by changing intracellular magnesium levels” (Neurocentria, Inc., priority 2016, dated 2022).
Values joined by “and” are separate entries in the source; they are usually repeats but may differ in a detail not shown here. Equal entries are not always repeated. “Also recorded” adds a separate entry of the source.

Legend:
Type in all cases: cell-based, Sprague-Dawley rats
[1] = system: hippocampal CA3-CA1 pyramidal neurons; experiment: Functional terminal density (N5AP): FM dye vesicle turnover under 5AP bursts; settings: for N5AP after blockade of axonal transport: 0.5 mM
Protocol: (§1) High-density primary cultures of hippocampal CA3-CA1 pyramidal neurons of neonatal Sprague-Dawley rats (<24 hr) were used in the current study, as described before (Slutsky et al., Neuron. 2004; 44(5):835-49). The neurons were cultured on 1 #coverslips (8 mm×8 mm) for 14-28 days in vitro (div) before use. [Mg^2+]o in culture medium was adjusted to different concentrations according to experimental designs. In each experiment, sister cultures from the same batch were always used for treatment and control conditions on the same day, and the experimental results were repeated using several different batches.
Vesicle turnover in response to bursting action potentials (see below) is a measure of the functional status of a presynaptic terminal. FM dyes were used to visualize the vesicle turnover of presynaptic terminals. In the current study, 10 μM FM1-43 or 20 μM FM4-64 (Biotium) was loaded under different patterns of field stimulations, such as 5AP bursts (5 action potentials (Aps) at 100 Hz for each burst, 6 bursts (30 APs totally) with 10 s inter burst interval were given) and “maximal stimulation” (600 APs at 10 Hz). Releasable fluorescence in the AOI (ΔF) was obtained from the difference of loading (F1) and unloading (F2) images, i.e. ΔF=F1−F2 (see FIG. 1A). For FIG. 3C, the loading/unloading procedures were performed under 5AP bursts and 600AP stimulation at the same area of network successively. Subsequently, the ΔF5AP and ΔF600AP images were registered to colocalize the vesicle turnover for these two stimulating protocols for individual terminals.
The functional terminal density (N5AP) at a dendritic branch was defined as the number of 5AP bursting stimulation induced FM(+) puncta (#FM5AP) per unit area of dendritic branch (A), N5AP=#FM5AP/A. […] immunofluorescence (IF) staining of MAP2 (as described below), which specifically presents in dendritic skeleton, was used to label dendritic area and A was calculated from MAP2(+) area. To limit the error of A introduced by the immunoreactivity of MAP2(+), the staining and imaging parameters were rigorously controlled in different batches of IF and the grey-scale histograms of MAP2(+) images were equalized before measuring A. Here, to ensure the equalized MAP2(+) marked area could reflect the real morphology of dendrites, the parameters of histogram equalization were set based on the comparison of MAP2(+) and DIC images. For most experiments, the average N5AP of an AOI was calculated from the total number of FM(+) puncta divided by total MAP2(+) area to reduce the sampling error. Then the mean N5AP of all AOIs (1-5 AOIs/coverslip) was used to represent the average N5AP in a coverslip; for each statistical data point, several coverslips were used and the mean±standard error of the mean (SEM) of all coverslips was represented (see figure legends). For FIGS. 3B and D, the FM(+) puncta density induced by 600AP stimulation was also calculated and presented in the same way as described above. Exceptionally, for FIG. 2B, each point represented the N5AP at a single segment of dendritic branch. In general, in an AOI (59 μm×59 μm, with varying dendritic density) 351-1598 presynaptic functional terminals could be detected by FM dyes for different experimental groups under 5AP bursting stimulation.

[2] = system: hippocampal CA3-CA1 pyramidal neurons; experiment: Mitochondrial status assessment (JC-1 membrane potential, mitochondrial density)
Protocol: The neurons were cultured on 1 #coverslips (8 mm×8 mm) for 14-28 days in vitro (div) before use. [Mg^2+]o in culture medium was adjusted to different concentrations according to experimental designs.
For FIG. 7A, mitochondria were marked with 40 nM Mitoview633 (Biotium) for 15 min and then washed out in blank medium for 15 min, both at 37° C. For FIG. 6A, the membrane potential-sensitive fluorescent dye JC-1 (1 μM) (Invitrogen) was used. JC-1 was incubated for 15 min followed by a 15 min washout at 37° C. Fluorescent images were taken on FV300 confocal. Mitochondrial membrane potential (ΔΨ) of each mitochondrion was estimated by the ratio of fluorescence of aggregate versus monomer form of JC-1, i.e. Faggr/Fmono. JC-1 was excited by 488 nm laser and the emission spectra were collected at 510-575 nm and >575 nm at the same time separately. Then the ratio of fluorescence at >575 nm versus at 510-575 nm (Faggr/Fmono) was calculated for each individual mitochondrial punctum to represent the ΔΨ of that mitochondrion. To estimate the valid range of Faggr/Fmono, Faggr/Fmono of individual mitochondria was measured before and after administering 5 μM Carbonyl cyanide 4-(trifluoromethoxy)phenylhydrazone (FCCP) 5 min at the same AOI. […] Faggr/Fmono was calculated for each individual meaningful punctum and the mean value of population was calculated from all the puncta to represent the general ΔΨ in this AOI. 3-5 AOIs were measured for each coverslip and the mean of the AOIs were calculated to represent the average ΔΨ of the coverslip. For each bar or point in FIG. 6, several coverslips were used (described in legends). The density of mitochondria (Nmito) was also quantified by counting the number of JC-1-aggregate(+) fluorescent puncta (FIG. 6) or MitoView633(+) puncta (FIG. 7) per area of branches.

[3] = system: hippocampal CA3-CA1 pyramidal neurons; experiment: In vitro immunofluorescence quantification of presynaptic proteins in terminals
Protocol: as §1
The neurons were fixed in 1×PBS (pH 7.4) containing 1% Paraformaldehyde (E.M.S.), 0.01% Glutaraldehyde (Alfa Aesar) and 4% Sucrose (Amresco) for 1 hr RT. […]
For FIG. 3B, the average density of immunoreactive puncta of a given AOI was calculated from the total puncta number divided by the total MAP2(+) area; the values from several AOIs were averaged to represent the average puncta density in a coverslip; for each data bar, the mean±SEM of these coverslips were presented. […] For FIGS. 5C and 5D, the mean fluorescence intensity per pixel in each cell body was measured (the somatic area of each cell body was measured from DIC image) and then the mean±SEM of all the cell bodies were presented. […]

[4] = system: hippocampal CA3-CA1 pyramidal neurons; experiment: Probability of transmitter release (Pr) in individual boutons, FM dye; settings: [Mg2+]o elevated from 0.8 to 1.2 mM for four hours; single action potential input
Protocol: FIGS. 25Aa to 25B. Intracellular Mg^2+ is a negative regulator of Pr. (FIG. 25Aa-25Ac) Inverse relationship between Pr and intracellular Mg^2+ concentration ([Mg^2+]i) in individual boutons. For individual terminals, the higher the [Mg^2+]i, the lower the Pr. (FIG. 25Aa) [Mg^2+]i and Pr in individual boutons were determined by Magnesium Green (MgGrn) and FM4-64, respectively. (FIG. 25Ab) Pr was negatively associated with [Mg^2+]i in individual boutons in a synaptic network. (FIG. 25Ac) Pr was linearly correlated with 1/[Mg^2+]i. […] Extracellular Mg^2+ concentration ([Mg^2+]o) was elevated from 0.8 to 1.2 mM for four hours to increase [Mg^2+]i.
FIGS. 26A and 26B. (FIG. 26A) Representative DIC and FM1-43 images comparing presynaptic responses to single (“1AP”: 30AP0.5 Hz) and bursting (“5AP”: 6 groups of 5 APs at 100 Hz, ISI 10 sec) stimulus at low (0.8 mM) and high (1.2 mM) [Mg^2+]o. (FIG. 26B) Quantitative analysis of images from FIG. 26A. ***p<0.001. For methods see Slutsky et al, 2004, and Example 1. 2AP and 3AP refer to 6 groups of 2 APs at 100 Hz or 3 APs at 100 Hz, respectively.

[5] = system: hippocampal CA3-CA1 pyramidal neurons; experiment: Intracellular Mg2+ measurement with Magnesium Green-AM (MgGrn); settings: for [Mg2+]i after blockade of axonal transport: 0.5 mM
Protocol: as §1
The mature cultures were incubated in Tyrode's solution with 2 μM Magnesium Green™-AM (MgGrn, an intracellular Mg^2+ indicator, Invitrogen) for 30 min and washed out for 20 min; both at 37° C. Fluorescent images of several AOIs in each coverslip were taken on FV300 at RT. In the current study, the MgGrn fluorescence at basal condition (without eliciting any AP stimulus) (FIG. 1A) was measured to eliminate any effects caused by AP-induced intracellular Ca^2+ fluctuations. Since the intracellular Ca^2+ concentration ([Ca^2+]i) at basal condition was usually <100 nM, the contribution of Ca^2+ to MgGrn fluorescence was very small. Thus, the fluorescent intensity of MgGrn could be considered proportional to [Mg^2+]i. Since the measured MgGrn fluorescence was also dependent on the local volume of branches in network, a physical model was built to describe this phenomenon and the calculating formula that corrected the effect of varying local volumes was derived.
In the experiments, given a randomly selected AOI of dendritic area (the image was obtained as described above), 50-100 branches were randomly selected from each AOI and the mean intensity of fluorescence (i.e. F(z)max) of each branch was measured. Meanwhile, the diameter of each branch (d) was measured from the DIC image, then the F(z)max/d was calculated to represent the [Mg^2+]i in the branch. The mean value of these 50-100 branches was calculated to represent the level of [Mg^2+]i in the AOI. […]

[6] = elevating Mg2+ level for long term (>48 hr)

Compound: [Mg+2] [Mg^2+]
- terminals functional in response to 5AP bursts (of 600AP-releasable terminals) ([1]; [Mg2+]o elevated from 0.8 to 1.2 mM for 4 hr): 90.6±2.9% and ~90%
- increase in mitochondrial membrane potential (ΔΨ) ([2]; elevating Mg2+ for 4 hr): ~39%
- increase in general mitochondrial function (Nmito×ΔΨ) ([2]; elevating Mg2+ level for 4 hr): ~68% and 67.8±12.4%
- increase in mitochondrial density (Nmito) in distal branches ([2]; elevating Mg2+ level for 4 hr): ~20% and 19.4±2.9%
- increase in general mitochondrial function (Nmito×ΔΨ) [2, 6]: 56.2±6.5%
- increase in mitochondrial density (Nmito) in distal branches [2, 6]: 19.6±2.1%
- increase in expression of Ca2+ sensor (SYT1) and coupling proteins in terminals ([3]; high [Mg2+]o (1.2 4 hr) vs Ctrl 0.8): 30-44%
- probability of release (Pr) [4]: reduced

Compound: CN(C)CCCN1c2ccccc2CCc2ccccc21 [Imipramine]
- functional terminal density (N5AP) ([1]; 1 μM for 4 hr added to Ctrl ([Mg2+]o 0.8 mM), 5AP bursts): increased
- persistence of N5AP enhancement ([1]; after 1 μM for 4 hr): ~32 h
- [Mg2+]i (MgGrn fluorescence) ([5]; 1 μM for 4 hr): elevation

Compound: COc1cc2c(c(OC)c1OC)-c1ccc(OC)c(=O)cc1[C@@H](NC(C)=O)CC2 [Colchicine]
- N5AP after blockade of axonal transport ([1]; at the high [Mg2+]o condition): remarkable reduction
- N5AP after blockade of axonal transport ([1]; while increasing [Mg2+]o): prevented the increase
- [Mg2+]i after blockade of axonal transport ([5]; at the high [Mg2+]o condition): without change
- [Mg2+]i after blockade of axonal transport ([5]; while increasing [Mg2+]o): did not prevent elevation
- concentration of presynaptic proteins in terminals ([3]; 0.5 mM, as a function of blocking time, low and high [Mg2+]o): decrease; also recorded: decreased linearly

Compound: N#CC(C#N)=NNc1ccc(OC(F)(F)F)cc1 [FCCP, Carbonyl cyanide 4-(trifluoromethoxy)phenylhydrazone, reference compound]
- mean Faggr/Fmono of all mitochondria (JC-1, ΔΨ) ([2]; 5 μM, 5 min, from 1.21±0.02 before): 0.26±0.002
